According to patent US7220553B2, “Use of Russell's viper venom-induced plasma factor Xa activity to monitor the activity of factor Xa inhibitors” (Sanofi-Aventis Deutschland GmbH, priority 1999, dated 2007):

What was measured:
Assay type in all cases: biochemical
endogenous plasma FXa = target: T1, endogenous plasma FXa (Homo sapiens, UniProt P00742); experiment: Russell's viper venom-induced clotting time (RVVT), RPR spiked in plasma
T1 construct: monitoring the effect of RPR on patient's endogenous plasma FXa; from tissue
Experimental: Dose-dependent clotting time prolongation curve from the compound methyl-3-(4′-N-oxopyridylphenoyl)-3-methyl-2-(m-amidinobenzyl)-propionate (hereinafter “RPR”) or the trifluoroacetate salt of RPR: • 1. Add 0.1 ml FXa buffer, 0.1 ml serial dilution of RPR, 0.1 ml normal pooled or patients plasma to the cuvette then 0.1 ml of RVV-Ca (MLA-800 dotter add this reagent automatically). • 2. Measure clotting time. • 3. Construct the dose-dependent clotting time prolongation curve. • 4. Calculate concentration for 2×RVVT
(§1) • 2. Follow the reaction kinetically for 5 min. • C) Calculation: Measure the initial velocity, however, ignore the lag phase. In general measure the initial rate of the linear portion of the time course. Use initial rates of clinical samples at different time points and then compared to the pre-dosing control to calculate % inhibition. Various concentrations of the compound RPR spiked in plasma were assayed for PT, APTT and PVVT prolongation. […] RVV-X induced clotting time (RVVT) assay could be conveniently used for monitoring the effect of RPR on patient's endogenous plasma FXa.

plasma [1] = experiment: PT clotting time, RPR spiked in plasma
Experimental: as §1

plasma [2] = experiment: APTT clotting time, RPR spiked in plasma
Experimental: as §1

T1 sequence (P00742 235-488 limits assumed): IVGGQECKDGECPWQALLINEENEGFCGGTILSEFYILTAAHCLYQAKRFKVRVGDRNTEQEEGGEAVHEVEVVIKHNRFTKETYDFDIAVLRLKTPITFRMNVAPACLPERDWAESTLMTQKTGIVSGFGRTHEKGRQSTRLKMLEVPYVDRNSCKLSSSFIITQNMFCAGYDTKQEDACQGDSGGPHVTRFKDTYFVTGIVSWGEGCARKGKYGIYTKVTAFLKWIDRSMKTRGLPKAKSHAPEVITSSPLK
T1 sequence (P00742 41-179 partner limits assumed): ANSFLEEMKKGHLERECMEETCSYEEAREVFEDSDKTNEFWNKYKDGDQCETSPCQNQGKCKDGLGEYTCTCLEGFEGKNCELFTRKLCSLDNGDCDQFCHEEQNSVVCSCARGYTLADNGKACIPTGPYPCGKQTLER

COC(=O)C(Cc1cccc(C(=N)N)c1)C(C)C(=O)c1ccc(-c2cc[n+]([O-])cc2)cc1 (stereo not drawn) [RPR, methyl-3-(4′-N-oxopyridylphenoyl)-3-methyl-2-(m-amidinobenzyl)-propionate]
fold-change of RVVT (endogenous plasma FXa; RPR 50 μg/ml spiked in plasma): 1.33 fold | fold-change of RVVT (endogenous plasma FXa; RPR 166 μg/ml spiked in plasma): 2.66 fold | fold-change of RVVT (endogenous plasma FXa; RPR 322 μg/ml spiked in plasma): 4.41 fold | fold-change of PT (plasma [1]; RPR 50 μg/ml spiked in plasma): 1.08 fold | fold-change of PT (plasma [1]; RPR 166 μg/ml spiked in plasma): 1.16 fold | fold-change of PT (plasma [1]; RPR 322 μg/ml spiked in plasma): 1.25 fold | fold-change of APTT (plasma [2]; RPR 50 μg/ml spiked in plasma): 1.08 fold | fold-change of APTT (plasma [2]; RPR 166 μg/ml spiked in plasma): 1.41 fold | fold-change of APTT (plasma [2]; RPR 322 μg/ml spiked in plasma): 1.5 fold
